According to ChEMBL document CHEMBL1143967, “Targeted inhibition of hedgehog signaling by cyclopamine prodrugs for advanced prostate cancer” (Bioorg Med Chem, 2008):
The source made the active and inactive calls. The rule behind the calls is not given here. *1 amine or outer side, *2 acyl side, *3 side chain or, on linkers, in order; H or OH if unused. Where a SMILES comes first, the peptide text is derived from it. The star is where a group is joined. X1 = CC1=C2C[C@H]3[C@@H](CC=C4C[C@@H](O)CC[C@@]43C)[C@@H]2CC[C@]12O[C@@H]1C[C@H](C)CN(*)[C@H]1[C@H]2C; Morpholide = C1CN(*)CCO1; CO = O=C([*:1])[*:2]

Legend:
DU-145 [1] = assay: Growth inhibition of human DU145 cells at 10 uM after 96 hrs; format: functional, cell-based
DU-145 [2] = assay: Growth inhibition of human DU145 cells at 5 uM after 96 hrs; format: functional, cell-based
DU-145 [3] = assay: Increase in growth inhibition of human DU145 cells in presence of PSA after 96 hrs; format: functional, cell-based
[4] = Hydrolysis of prodrug assessed as half life in presence PSA; format: ADME

Structure (SMILES)	Activity (DU-145 [1])	Activity (DU-145 [2])	Activity (DU-145 [3])	t1/2 [4]
CC1=C2C[C@H]3[C@@H](CC=C4C[C@@H](O)CC[C@@]43C)[C@@H]2CC[C@]12O[C@@H]1C[C@H](C)CN[C@H]1[C@H]2C	Active	Active		
CC1=C2C[C@H]3[C@@H](CC=C4C[C@@H](O)CC[C@@]43C)[C@@H]2CC[C@]12O[C@@H]1C[C@H](C)CN(C(=O)[C@H](CCC(N)=O)NC(=O)[C@H](CC(C)C)NC(=O)[C@H](CCCCN)NC(=O)[C@H](CO)NC(=O)[C@H](CO)NC(=O)[C@H](Cc3c[nH]cn3)NC(=O)N3CCOCC3)[C@H]1[C@H]2C ({Morpholide-CO}-HSSKLQ-X1)			Active	22 h
CC1=C2C[C@H]3[C@@H](CC=C4C[C@@H](O)CC[C@@]43C)[C@@H]2CC[C@]12O[C@@H]1C[C@H](C)CN(C(=O)[C@H](CCC(N)=O)NC(=O)[C@H](Cc3ccc(O)cc3)NC(=O)[C@H](CCCCN)NC(=O)[C@H](CO)NC(=O)[C@H](CO)NC(=O)N3CCOCC3)[C@H]1[C@H]2C ({Morpholide-CO}-SSKYQ-X1)				3.2 h
